PubChem BioAssay (NCI)
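Dose response: 5 concentrations. Exposure: 48 h. Format: 96-well plates. Endpoint: linear interpolation; highest concentration if not reached. GI50 is the concentration that inhibits growth by half. At the TGI there is no net growth.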

Legend:
Assay in all cases: DTP human tumour cell line panel, 48 h
[1] = tested on: CCRF-CEM leukemia
[2] = tested on: HOP-92 NSCLC
[3] = tested on: MDA-MB-435
[4] = tested on: SF-295 CNS
[5] = tested on: SK-MEL-2 melanoma
[6] = tested on: SN12C renal
[7] = tested on: TK-10 renal
[8] = tested on: UACC-257 melanoma
[9] = tested on: DLD-1 colon
[10] = tested on: M19-MEL melanoma

## COc1cc(/C=C\c2cc(OC)c(OC)c(OC)c2)cc(NS(=O)(=O)c2ccc(Cl)cc2)c1OC
[1]
  GI50: 0.388 µM
  TGI: > 100 µM
[2]
  GI50: 0.72 µM
  TGI: 72.3 µM
[3]
  GI50: 0.188 µM
  TGI: 0.44 µM
[4]
  GI50: 0.319 µM
  TGI: 84 µM
[5]
  GI50: 0.613 µM
  TGI: 50.7 µM
[6]
  GI50: 0.75 µM
  TGI: > 100 µM
[7]
  GI50: 0.779 µM
  TGI: 99.6 µM
[8]
  GI50: 12.5 µM
  TGI: > 100 µM

## COc1ccc(/C(C)=C(\c2ccc(Cl)cc2)c2ccc(OCCN3CCCCCC3)cc2)cc1F
[1]
  GI50: 4.51 µM
  TGI: > 16.7 µM
[2]
  GI50: 2.57 µM
  TGI: 6.62 µM
[3]
  GI50: 2.78 µM
  TGI: 5.77 µM
[4]
  GI50: 2.69 µM
  TGI: 5.61 µM
[5]
  GI50: 5.23 µM
  TGI: 16.3 µM
[6]
  GI50: 2.96 µM
  TGI: 8.3 µM
[7]
  GI50: 4.28 µM
  TGI: 14 µM
[8]
  GI50: 3.4 µM
  TGI: 7.87 µM

## COC(=O)c1ccc2[nH]c(O)c(C(=Nc3ccc(N(C)C(=O)CN4CCN(C)CC4)cc3)c3ccccc3)c2c1
[1]
  GI50: 0.666 µM
  TGI: > 100 µM
[2]
  GI50: 9.78 µM
  TGI: 39.7 µM
[3]
  GI50: 0.89 µM
  TGI: 4.02 µM
[4]
  GI50: 6.34 µM
  TGI: 21 µM
[5]
  GI50: 1.17 µM
  TGI: 3.54 µM
[6]
  GI50: 0.267 µM
  TGI: 11.6 µM
[7]
  GI50: 3.05 µM
  TGI: 17 µM
[8]
  GI50: 2.24 µM
  TGI: 5 µM

## OCC(O)C(O)C(O)C(O)c1nn[nH]n1 (configuration not stated)
[1]
  TGI: > 100 µM
[9]
  TGI: > 100 µM
[2]
  TGI: > 100 µM
[10]
  TGI: > 100 µM
[4]
  TGI: > 100 µM
[5]
  TGI: > 100 µM
[6]
  TGI: > 100 µM

## COC(=O)[C@H](Cc1cn(C)cn1)NC(=O)[C@@H](NC(=O)Nc1cc(C(F)(F)F)cc(C(F)(F)F)c1)C(C)C
[1]
  GI50: 3.15 µM
  TGI: > 10 µM
[2]
  GI50: 5.48 µM
  TGI: > 10 µM
[3]
  GI50: 6.11 µM
  TGI: > 10 µM
[4]
  GI50: > 10 µM
  TGI: > 10 µM
[5]
  GI50: > 10 µM
  TGI: > 10 µM
[6]
  GI50: 1.88 µM
  TGI: 3.97 µM
[7]
  GI50: 9.9 µM
  TGI: > 10 µM
[8]
  GI50: > 10 µM
  TGI: > 10 µM

## CNCc1ccc(-c2[nH]c3cc(F)cc4c3c2CCNC4=O)cc1
[1]
  GI50: 25.6 µM
  TGI: > 93 µM
[2]
  GI50: 17.9 µM
  TGI: > 69.5 µM
[3]
  GI50: 16.5 µM
  TGI: 36.1 µM
[4]
  GI50: 18.8 µM
  TGI: 45.7 µM
[5]
  GI50: 20.9 µM
  TGI: 39.3 µM
[6]
  GI50: 16.5 µM
  TGI: 48 µM
[7]
  GI50: 29.2 µM
  TGI: 72.7 µM
[8]
  GI50: 17 µM
  TGI: 33.2 µM

## COc1cc(/C=C2\C(=O)N(C)c3ccccc32)cc(OC)c1OC
[1]
  GI50: 5.42 µM
  TGI: 87.9 µM
[2]
  GI50: 15.9 µM
  TGI: 70.6 µM
[3]
  GI50: 5.02 µM
  TGI: 45.4 µM
[4]
  GI50: 22.1 µM
  TGI: > 100 µM
[5]
  GI50: 14.3 µM
  TGI: 45.8 µM
[6]
  GI50: 17 µM
  TGI: 69.5 µM
[7]
  GI50: 31.1 µM
  TGI: > 100 µM
[8]
  GI50: 21.4 µM
  TGI: 55 µM

## CC1=C2[C@@H](CC1)[C@]1(C)O[C@@](C3CC3)(C[C@H]1OC(=O)CO)[C@H]2OC(=O)/C=C/c1ccccc1
[1]
  GI50: 17.4 µM
  TGI: 39.7 µM
[2]
  GI50: 13.4 µM
  TGI: 26.7 µM
[3]
  GI50: 16.1 µM
  TGI: 30.6 µM
[4]
  GI50: 16.1 µM
  TGI: 30.1 µM
[5]
  GI50: 18.1 µM
  TGI: 36.1 µM
[6]
  GI50: 0.736 µM
  TGI: 25.4 µM
[7]
  GI50: 18.7 µM
  TGI: 33.8 µM
[8]
  GI50: 17.7 µM
  TGI: 32.9 µM

## CNCc1cccc2c1OCCOCCOCCC(C)S(=O)(=O)c1ccc(cc1)-c1cnc(N)c(n1)C(=O)N2 (configuration not stated)
[1]
  GI50: 0.67 µM
  TGI: 7.2 µM
[2]
  GI50: 11.5 µM
  TGI: 25 µM
[3]
  GI50: 1.57 µM
  TGI: 3.3 µM
[4]
  GI50: 2.84 µM
  TGI: 9.07 µM
[5]
  GI50: 2.37 µM
  TGI: 6.36 µM
[6]
  GI50: 1.24 µM
  TGI: 3.14 µM
[7]
  GI50: 1.37 µM
  TGI: 8.25 µM
[8]
  GI50: 1.91 µM
  TGI: 4.55 µM

## Nc1ncc(C2[C@H](CNC(=O)c3cc(Br)c[nH]3)C(CNC(=O)c3cc(Br)c[nH]3)[C@@H]2c2cnc(N)[nH]2)[nH]1 (some centres not stated)
[1]
  GI50: > 50 µM
  TGI: > 50 µM
[2]
  GI50: 43.7 µM
  TGI: > 50 µM
[3]
  GI50: > 50 µM
  TGI: > 50 µM
[4]
  GI50: > 50 µM
  TGI: > 50 µM
[5]
  GI50: > 50 µM
  TGI: > 50 µM
[6]
  GI50: 21.4 µM
  TGI: > 50 µM
[7]
  GI50: > 50 µM
  TGI: > 50 µM
[8]
  GI50: > 50 µM
  TGI: > 50 µM

## COc1c(O)c2c3c(c1OC)-c1ccccc1CC3N(S(=O)(=O)c1ccc(C)cc1)CC2 (configuration not stated)
[1]
  GI50: 1.34 µM
  TGI: 4.94 µM
[2]
  GI50: 1.41 µM
  TGI: 29 µM
[3]
  GI50: 1.07 µM
  TGI: 2.92 µM
[4]
  GI50: 2.07 µM
  TGI: 30.6 µM
[5]
  GI50: 1.47 µM
  TGI: 3.88 µM
[6]
  GI50: 2.59 µM
  TGI: > 50 µM
[7]
  GI50: 7.96 µM
  TGI: > 50 µM
[8]
  GI50: 1.8 µM
  TGI: > 50 µM

## COc1ccc(/C=C\c2cc(OC)c(OC)c(OC)c2)c(NS(=O)(=O)c2ccc(C(C)(C)C)cc2)c1O
[1]
  GI50: 0.468 µM
  TGI: 35.8 µM
[2]
  GI50: 0.189 µM
  TGI: 5.92 µM
[3]
  GI50: 0.0427 µM
  TGI: 0.735 µM
[4]
  GI50: 1.37 µM
  TGI: 15 µM
[5]
  GI50: 1.22 µM
  TGI: 20.2 µM
[6]
  GI50: 0.618 µM
  TGI: 21.4 µM
[7]
  GI50: 1.3 µM
  TGI: 37.1 µM
[8]
  GI50: 13.2 µM
  TGI: 32.1 µM

## CCCCC[C@@H](C/C=C/CCC(=O)NC/C(=C/Cl)[C@H]1C(=O)C(C)(C)C(=O)[C@@H](C)[C@@]1(C)O)OC
[1]
  GI50: 3.27 µM
  TGI: 15.7 µM
[2]
  GI50: 19.2 µM
  TGI: 38.2 µM
[3]
  GI50: 18.7 µM
  TGI: 36.3 µM
[4]
  GI50: 13.5 µM
  TGI: 26.4 µM
[5]
  GI50: 17.3 µM
  TGI: 31.9 µM
[6]
  GI50: 17.3 µM
  TGI: 32 µM
[7]
  GI50: 20.8 µM
  TGI: 40.5 µM
[8]
  GI50: 18.4 µM
  TGI: 34.3 µM

## c1ccc2c3c([nH]c2c1)C1C2CCCCN2C(c2ccncc2)N1CC3 (configuration not stated)
[1]
  TGI: > 100 µM
[10]
  TGI: > 100 µM
[4]
  TGI: > 100 µM
[5]
  TGI: > 100 µM
[6]
  TGI: > 100 µM
[8]
  TGI: > 100 µM

## NNC(=O)N/N=C1\CN(c2ccc(Cl)cc2Cl)C(=O)C(=O)C1c1nc2ccccc2o1 (configuration not stated)
[1]
  TGI: > 100 µM
[9]
  TGI: > 100 µM
[2]
  TGI: > 100 µM
[10]
  TGI: > 100 µM
[5]
  TGI: > 100 µM
[6]
  TGI: > 100 µM
[8]
  TGI: > 100 µM
